Patent publication US7960377B2 (priority 2008, dated 2011)

How the values were obtained:
[1] = molecular target: human CB1 receptor (Homo sapiens, UniProt P21554); assay: cell-based
[2] = molecular target: T1, rat CB2 receptor (Rattus norvegicus, UniProt Q9QZN9); assay: cell-based; assay type: cell-based
T1 sequence (Q9QZN9 1-360): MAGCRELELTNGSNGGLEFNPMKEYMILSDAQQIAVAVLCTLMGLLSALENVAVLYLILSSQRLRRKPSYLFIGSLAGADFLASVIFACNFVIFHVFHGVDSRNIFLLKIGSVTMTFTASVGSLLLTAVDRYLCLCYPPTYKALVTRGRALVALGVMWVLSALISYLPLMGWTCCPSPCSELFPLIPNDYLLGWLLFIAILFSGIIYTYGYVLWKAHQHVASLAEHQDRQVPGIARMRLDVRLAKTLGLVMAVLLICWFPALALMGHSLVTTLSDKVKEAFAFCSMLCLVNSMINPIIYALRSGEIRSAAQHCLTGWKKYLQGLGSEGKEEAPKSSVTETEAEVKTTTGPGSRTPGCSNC

Sequence of human CB1 receptor (P21554 whole entry): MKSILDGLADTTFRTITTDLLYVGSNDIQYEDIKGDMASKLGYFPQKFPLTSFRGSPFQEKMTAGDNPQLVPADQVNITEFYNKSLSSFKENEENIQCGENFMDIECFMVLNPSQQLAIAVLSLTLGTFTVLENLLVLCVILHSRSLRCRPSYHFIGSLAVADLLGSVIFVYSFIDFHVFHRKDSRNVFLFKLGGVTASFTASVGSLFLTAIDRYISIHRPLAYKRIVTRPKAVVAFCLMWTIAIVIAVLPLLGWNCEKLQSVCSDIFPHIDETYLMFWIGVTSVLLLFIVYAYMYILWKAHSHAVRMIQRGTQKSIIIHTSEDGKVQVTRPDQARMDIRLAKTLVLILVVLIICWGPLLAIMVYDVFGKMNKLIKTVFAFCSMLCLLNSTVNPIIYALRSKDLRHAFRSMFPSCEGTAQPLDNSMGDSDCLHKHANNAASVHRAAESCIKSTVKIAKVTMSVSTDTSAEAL

COc1ccc(S(=O)(=O)N2CCOc3ncc(C(=O)NC(C)(C)CO)cc32)c(F)c1 [Example 103, 1-(2-fluoro-4-methoxyphenylsulfonyl)-N-(1-hydroxy-2-methylpropan-2-yl)-2,3-dihydro-1H-pyrido[2,3-b][1,4]oxazine-7-carboxamide]
EC50 [1]: > 30 µM | EC50 [2]: ≤ 0.03 µM

CC1CCN(S(=O)(=O)N2CCOc3ncc(C(=O)NC(C)(C)C)cc32)CC1 [Example 170, N-tert-butyl-1-(4-methylpiperidin-1-ylsulfonyl)-2,3-dihydro-1H-pyrido[2,3-b][1,4]oxazine-7-carboxamide]
EC50 [1]: > 30 µM | EC50 [2]: ≤ 0.03 µM

CC(C)(C)NC(=O)c1cnc2c(c1)N(S(=O)(=O)c1ccc(C(F)(F)F)cc1)CCO2 [Example 26, N-tert-butyl-1-(4-(trifluoromethyl)phenylsulf-onyl)-2,3-dihydro-1H-pyrido[2,3-b][1,4]oxazine-7-carboxamide]
EC50 [1]: > 30 µM | EC50 [2]: ≤ 0.03 µM

CC(C)(C)CC(C)(C)NC(=O)c1cnc2c(c1)N(S(=O)(=O)c1ccc(C(F)(F)F)cc1)CCO2 [Example 65, 1-(4-(trifluoromethyl)-phenylsulfonyl)-N-(2,4,4-trimethylpentan-2-yl)-2,3-dihydro-1H-pyrido[2,3-b][1,4]oxazine-7-carboxamide]
EC50 [1]: > 30 µM | EC50 [2]: ≤ 0.03 µM

CC(C)(O)CNC(=O)c1cnc2c(c1)N(S(=O)(=O)c1ccc(Cl)c(Cl)c1)CCO2 [Example 98]
EC50 [1]: > 30 µM | EC50 [2]: ≤ 0.03 µM

COCC1CCCCN1C(=O)c1cnc2c(c1)N(S(=O)(=O)c1ccc(C(F)(F)F)cc1)CCO2 (racemic) [Example 74, +/− (2-(methoxymethyl)-piperidin-1-yl)(1-(4-(trifluoromethyl)phenylsulf-onyl)-2,3-dihydro-1H-pyrido[2,3-b][1,4]oxazin-7-yl)methanone]
EC50 [1]: > 30 µM | EC50 [2]: ≤ 0.03 µM

CC(C)(C)NC(=O)c1cnc2c(c1)N(S(=O)(=O)c1cccc(Cl)c1)CCO2 [Example 89, N-tert-butyl-1-(3-chlorophenylsulfonyl)-2,3-dihydro-1H-pyrido[2,3-b][1,4]oxazine-7-carboxamide]
EC50 [1]: > 30 µM | EC50 [2]: ≤ 0.03 µM

CCC(C)(C)NC(=O)c1cnc2c(c1)N(S(=O)(=O)N1CCC(C)CC1)CCO2 [Example 171, 1-(4-methylpiperidin-1-ylsulfonyl)-N-tert-pentyl-2,3-dihydro-1H-pyrido[2,3-b][1,4]oxazine-7-carboxamide]
EC50 [1]: > 30 µM | EC50 [2]: ≤ 0.03 µM

CC(C)CNS(=O)(=O)N1CCOc2ncc(C(=O)NCC(C)(C)CO)cc21 [Example 182, N-(3-hydroxy-2,2-dimethylpropyl)-1-(N-isobutylsulfamoyl)-2,3-dihydro-1H-pyrido[2,3-b][1,4]oxazine-7-carboxamide]
EC50 [1]: > 30 µM | EC50 [2]: ≤ 0.03 µM

O=S(=O)(c1ccccc1)N1CCOc2ncc(-c3nnc(-c4ccccc4)o3)cc21 [Example 211, 7-(5-phenyl-1,3,4-oxadiazol-2-yl)-1-(phenylsulfonyl)-2,3-dihydro-1H-pyrido[2,3-b][1,4]oxazine]
EC50 [1]: > 30 µM | inverse agonist mark, rat CB2 receptor ([2]; asterisk at the compound number): 181, 188, 189, 190, 195, 200, 201, 202, 204, 211*, 214*, 220, 221,

COc1ccc(S(=O)(=O)N2CCOc3ncc(C(=O)NCC(C)(C)O)cc32)cc1Cl [Example 104]
EC50 [1]: > 30 µM | EC50 [2]: ≤ 0.03 µM

CC1(C)CN=C(c2cnc3c(c2)N(S(=O)(=O)c2ccc(C(F)(F)F)cc2)CCO3)NC1 [Example 225, 7-(5,5-dimethyl-1,4,5,6-tetrahydropyrimidin-2-yl)-1-(4-(trifluoromethyl)phenylsulfonyl)-2,3-dihydro-1H-pyrido[2,3-b][1,4]oxazine]
EC50 [1]: > 30 µM | EC50 [2]: > 30 µM

O=C(NC1CCC1)c1cnc2c(c1)N(S(=O)(=O)c1ccc(Cl)c(Cl)c1)CCO2 [Example 137, N-cyclobutyl-1-(3,4-dichlorophenylsulfonyl)-2,3-dihydro-1H-pyrido[2,3-b][1,4]oxazine-7-carboxamide]
EC50 [1]: > 30 µM | EC50 [2]: ≤ 0.03 µM

O=C(NC1CCCC1)c1cnc2c(c1)N(S(=O)(=O)c1cccc(F)c1)CCO2 [Example 21, N-cyclopentyl-1-(3-fluorophenylsulfonyl)-2,3-dihydro-1H-pyrido[2,3-b][1,4]oxazine-7-carboxamide]
EC50 [1]: > 30 µM | EC50 [2]: ≤ 0.03 µM

CC(C)(CN1CCOCC1)NC(=O)c1cnc2c(c1)N(S(=O)(=O)c1ccc(C(F)(F)F)cc1)CCO2 [Example 46, N-(2-methyl-1-morpholinopropan-2-yl)-1-(4-(trifluoromethyl)phenylsulfonyl)-2,3-dihydro-1H-pyrido[2,3-b][1,4]oxazine-7-carboxamide]
EC50 [1]: > 30 µM | EC50 [2]: ≤ 0.03 µM

CC(C)(CO)NC(=O)c1cnc2c(c1)N(S(=O)(=O)c1ccc(F)c(Cl)c1)CCO2 [Example 99, 1-(3-chloro-4-fluorophenylsulfonyl)-N-(1-hydroxy-2-methylpropan-2-yl)-2,3-dihydro-1H-pyrido[2,3-b][1,4]oxazine-7-carboxamide]
EC50 [1]: > 30 µM | EC50 [2]: ≤ 0.03 µM

O=C(NC1CCCC1)c1cnc2c(c1)N(S(=O)(=O)c1ccc(C(F)(F)F)cc1)CCO2 [Example 27, N-cyclopentyl-1-(4-(trifluoromethyl)phenylsulf-onyl)-2,3-dihydro-1H-pyrido[2,3-b][1,4]oxazine-7-carboxamide]
EC50 [1]: > 30 µM | EC50 [2]: ≤ 0.03 µM

CC1CCN(S(=O)(=O)N2CCOc3ncc(C(=O)NC(C)(C)CO)cc32)CC1 [Example 172, N-(1-hydroxy-2-methylpropan-2-yl)-1-(4-methylpiperidin-1-ylsulfonyl)-2,3-dihydro-1H-pyrido[2,3-b][1,4]oxazine-7-carboxamide]
EC50 [1]: > 30 µM | EC50 [2]: ≤ 0.03 µM

O=C(NCC1CC1)c1cnc2c(c1)N(S(=O)(=O)c1ccc(Cl)cc1)CCO2 [Example 33, 1-(4-chlorophenyl-sulfonyl)-N-(cyclopropyl-methyl)-2,3-dihydro-1H-pyrido[2,3-b][1,4]oxazine-7-carboxamide]
EC50 [1]: > 30 µM | EC50 [2]: ≤ 0.03 µM

CC(C)(C)NC(=O)c1cnc2c(c1)N(S(=O)(=O)N1CCC(F)CC1)CCO2 [Example 166, N-tert-butyl-1-(4-fluoropiperidin-1-ylsulfonyl)-2,3-dihydro-1H-pyrido[2,3-b][1,4]oxazine-7-carboxamide]
EC50 [1]: > 30 µM | EC50 [2]: ≤ 0.03 µM

CN(C(=O)c1cnc2c(c1)N(S(=O)(=O)c1ccc(C(F)(F)F)cc1)CCO2)C(C)(C)C [Example 40, N-tert-butyl-N-methyl-1-(4-(trifluoromethyl)-phenylsulfonyl)-2,3-dihydro-1H-pyrido[2,3-b][1,4]oxazine-7-carboxamide]
EC50 [1]: > 30 µM | EC50 [2]: ≤ 0.03 µM

CC(C)(CO)NC(=O)c1cnc2c(c1)N(S(=O)(=O)c1ccc(Cl)c(Cl)c1)CCO2 [Example 95, 1-(3,4-dichlorophenylsulfonyl)-N-(1-hydroxy-2-methylpropan-2-yl)-2,3-dihydro-1H-pyrido[2,3-b][1,4]oxazine-7-carboxamide]
EC50 [1]: > 30 µM | EC50 [2]: ≤ 0.03 µM

CC(C)(C)NC(=O)c1cnc2c(c1)N(S(=O)(=O)N1CCOCC1)CCO2 [Example 140, N-tert-butyl-1-(morpholinosulfonyl)-2,3-dihydro-1H-pyrido[2,3-b][1,4]oxazine-7-carboxamide]
EC50 [1]: > 30 µM | EC50 [2]: ≤ 0.03 µM

CC(C)CNS(=O)(=O)N1CCOc2ncc(C(=O)NC(C)(C)C)cc21 [Example 180, N-tert-butyl-1-(N-isobutylsulfamoyl)-2,3-dihydro-1H-pyrido[2,3-b][1,4]oxazine-7-carboxamide]
EC50 [1]: > 30 µM | EC50 [2]: ≤ 0.03 µM

COC(=O)[C@@H]1CCCCN1C(=O)c1cnc2c(c1)N(S(=O)(=O)c1ccc(C(F)(F)F)cc1)CCO2 [Example 68, (S)-methyl 1-(1-(4-(trifluoromethyl)phenylsulf-onyl)-2,3-dihydro-1H-pyrido[2,3-b][1,4]oxazine-7-carbonyl)piperidine-2-carboxylate]
EC50 [1]: > 30 µM | EC50 [2]: ≤ 0.03 µM

CC(C)(C)NC(=O)c1cnc2c(c1)N(S(=O)(=O)c1ccsc1)CCO2 [Example 90, N-tert-butyl-1-(thiophen-3-ylsulfonyl)-2,3-dihydro-1H-pyrido[2,3-b][1,4]oxazine-7-carboxamide]
EC50 [1]: > 30 µM | EC50 [2]: ≤ 0.03 µM

C[C@@H]1CCC[C@H](C)N1C(=O)c1cnc2c(c1)N(S(=O)(=O)c1ccc(C(F)(F)F)cc1)CCO2 [Example 197, (cis-2,6-dimethylpiperidin-1-yl)(1-(4-(trifluoromethyl)phenylsulf-onyl)-2,3-dihydro-1H-pyrido[2,3-b][1,4]oxazin-7-yl)methanone]
EC50 [1]: > 30 µM | EC50 [2]: ≤ 0.03 µM

CCC(CO)(CO)NC(=O)c1cnc2c(c1)N(S(=O)(=O)c1ccc(C(F)(F)F)cc1)CCO2 [Example 64, N-(1-hydroxy-2-(hydroxymethyl)butan-2-yl)-1-(4-(trifluoromethyl)phenylsulf-onyl)-2,3-dihydro-1H-pyrido[2,3-b][1,4]oxazine-7-carboxamide]
EC50 [1]: > 30 µM | EC50 [2]: ≤ 0.03 µM

CC(C)(CO)NC(=O)c1cnc2c(c1)N(S(=O)(=O)c1ccc(Cl)cc1F)CCO2 [Example 96, 1-(4-chloro-2-fluorophenylsulfonyl)-N-(1-hydroxy-2-methylpropan-2-yl)-2,3-dihydro-1H-pyrido[2,3-b][1,4]oxazine-7-carboxamide]
EC50 [1]: > 30 µM | EC50 [2]: ≤ 0.03 µM

Cc1ccc(S(=O)(=O)N2CCOc3ncc(C(=O)NC(C)(C)C)cc32)s1 [Example 59, N-tert-butyl-1-(5-methylthiophen-2-ylsulfonyl)-2,3-dihydro-1H-pyrido[2,3-b][1,4]oxazine-7-carboxamide]
EC50 [1]: > 30 µM | EC50 [2]: ≤ 0.03 µM
